# Experimental data reported in patent US4322351A (priority 1980, dated 1982).
# Structures can show the parent of a compound that is named as a salt.
# How the values were obtained:
# [1] = tested on: Chinese hamster ovary cells; experiment: standard mitotic inhibition test employing Chinese hamster ovary cells; assay type: cell-based
# Excerpt: The compounds of this invention are antimitotic compounds which adversely affects the growth of malignant cells. This activity is manifested in a standard mitotic inhibition test employing Chinese hamster ovary cells.
# P1534(J) = experiment: transplanted tumors in mice: P1534(J) leukemia; assay type: in vivo; settings: intraperitoneal
# Protocol: (§1) The bases of this invention and their salts preparable by the processes disclosed herein are active in vivo against transplanted tumors in mice.
# The following table--Table 1--gives the results of experiments in which mice bearing the susceptible transplanted tumor were treated with a compound of this invention. In the table, column 1 gives the name of the compound; column 2, the tumor used; column 3 the dosage; and column 4, the percent inhibition of tumor growth (I) or prolongation of life (PL). […]
# 755 adenocarcinoma = experiment: transplanted tumors in mice: 755 adenocarcinoma; assay type: in vivo; settings: intraperitoneal
# Protocol: as §1
# (§2) The following table--Table 1--gives the results of experiments in which mice bearing the susceptible transplanted tumor were treated with a compound of this invention. In the table, column 1 gives the name of the compound; column 2, the tumor used; column 3 the dosage; and column 4, the percent inhibition of tumor growth (I) or prolongation of life (PL). The following dosage regimens were employed: every day for 7 or 10 days after tumor inoculation; or every fourth day (three doses) starting at the third day after tumor inoculation.
# B16 melanoma = experiment: transplanted tumors in mice: B16 melanoma; assay type: in vivo; settings: intraperitoneal; for percent Prolongation of life (PL): * = 1 or more indefinite survivors
# Protocol: as §1, §2
# P388/V leukemia = experiment: transplanted tumors in mice: P388/V leukemia; assay type: in vivo; settings: dose and regimen not given, intraperitoneal
# Protocol: as §1, §2
# tumor = settings: background, U.S. Pat. No. 4,166,810 and Conrad et al.; cited from earlier work
compound,measurement,setting,value
4'-Acetylamino VLB,mitotic index,[1]; 2.0×10^-2 mcg/ml,+ (15-25% inhibition)
CCC1(NC(C)=O)C[C@@H]2CN(CCc3c([nH]c4ccccc34)[C@@](C(=O)OC)(c3cc4c(cc3OC)N(C)[C@H]3[C@@](O)(C(=O)OC)[C@H](OC(C)=O)[C@]5(CC)C=CCN6CC[C@]43[C@@H]65)C2)C1 (some centres unmarked) [4'-acetylamino VLB sulfate],Percent Inhibition (I) of tumor growth,"P1534(J); every third day, 5.0 mg/kg",42%
same,Percent Inhibition (I) of tumor growth,"P1534(J); every third day, 7.5 mg/kg",71%
same,Percent Inhibition (I) of tumor growth,"755 adenocarcinoma; 10 days, 1 mg/kg",18%
same,Percent Inhibition (I) of tumor growth,"755 adenocarcinoma; 10 days, .5 mg/kg",30%
same,Percent Inhibition (I) of tumor growth,"755 adenocarcinoma; 10 days, .75 mg/kg",29%
same,Percent Inhibition (I) of tumor growth,"755 adenocarcinoma; 11 days, 3 mg/kg",57%
same,Percent Inhibition (I) or Prolongation (PL) column: toxicity,"755 adenocarcinoma; 11 days, 6 mg/kg",Toxic
same,Percent Inhibition (I) of tumor growth,"755 adenocarcinoma; 11 days, .5 mg/kg",33%
same,indefinite survivors,"B16 melanoma; 3 days, 1.5 mg/kg",* (1 or more indefinite survivors)
same,percent Prolongation of life (PL),"B16 melanoma; 3 days, 1.5 mg/kg",120%
same,indefinite survivors,"B16 melanoma; 3 days, 3 mg/kg",* (1 or more indefinite survivors)
same,percent Prolongation of life (PL),"B16 melanoma; 3 days, 3 mg/kg",74-201%
same,indefinite survivors,B16 melanoma; .75 mg/kg,* (1 or more indefinite survivors)
same,percent Prolongation of life (PL),B16 melanoma; .75 mg/kg,119%
same,indefinite survivors,P388/V leukemia,* (1 or more indefinite survivors)
same,percent Prolongation of life (PL),P388/V leukemia; * = 1 or more indefinite survivors,20%
CCC1(NC(C)=O)C[C@@H]2CN(CCc3c([nH]c4ccccc34)[C@@](C(=O)OC)(c3cc4c(cc3OC)N(C)[C@H]3[C@@](O)(C(=O)OC)[C@H](O)[C@]5(CC)C=CCN6CC[C@]43[C@@H]65)C2)C1 (some centres unmarked) [4'-acetylamino-4-desacetyl VLB],inhibition at 2 µg/mL,"[1]; Cricetulus griseus, CHO, read-out: mitotic index",25 to 50%
same,Percent Inhibition (I) of tumor growth,P1534(J); 9.5-1.0 mg/kg,2-11%
same,Percent Inhibition (I) of tumor growth,B16 melanoma; 10 1.0 (regimen and dose mg/kg),58%
same,Percent Inhibition (I) of tumor growth,B16 melanoma; .5 mg/kg,23%
same,Percent Inhibition (I) of tumor growth,B16 melanoma; .75 mg/kg,44%
"CC[C@]1(O)C[C@@H]2CN(CCc3c([nH]c4ccccc34)[C@@](C(=O)OC)(c3cc4c(cc3OC)N(C)[C@H]3[C@@](O)(C(N)=O)[C@H](O)[C@]5(CC)C=CCN6CC[C@]43[C@@H]65)C2)C1 [vindesine, 4-desacetyl VLB C-3 carboxamide]",anti-tumor activity,tumor,very active
